PMC6707612, “Cyclic-di-GMP binds to histidine kinase RavS to control RavS-RavR phosphotransfer and regulates the bacterial lifestyle transition between virulence and swimming” (PLoS Pathogens, 2019)
“And” between values parts separate entries of the source, which are not always exact repeats. Equal values may be shown once.

Tests used:
RavS^ΔN [1] = target: T1, RavS^ΔN (Xanthomonas campestris pv. campestris, UniProt Q8P9A6); assay: in vitro RavS-RavR phosphotransfer assay (RavS~P level by autoradiography); type: biochemical
T1 sequence (Q8P9A6 352-697): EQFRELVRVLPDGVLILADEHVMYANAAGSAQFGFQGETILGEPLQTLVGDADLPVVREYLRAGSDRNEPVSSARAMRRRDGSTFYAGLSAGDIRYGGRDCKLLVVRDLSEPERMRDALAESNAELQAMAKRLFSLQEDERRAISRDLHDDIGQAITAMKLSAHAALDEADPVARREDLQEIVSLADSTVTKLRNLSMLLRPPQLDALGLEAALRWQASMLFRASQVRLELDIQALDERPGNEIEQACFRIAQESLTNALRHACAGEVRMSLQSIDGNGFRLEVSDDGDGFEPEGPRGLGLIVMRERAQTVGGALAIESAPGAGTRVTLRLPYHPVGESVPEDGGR
Description: (a) c-di-GMP enhances RavS-RavR phosphotransfer in vitro. A total of 5 μM RavS^ΔN was autophosphorylated for 15 min by the addition of 10 μCi [γ-^32P]ATP. A total of 15 μM RavR^ΔEAL or RavR^ΔEAL(D496A) was added and incubated for 30 min at 25°C. A total of 100 μM c-di-GMP was added if necessary. The reactions were terminated with 5× SDS loading buffer before autoradiography. The experiment was repeated three times. (b) Time course analyses of the impact of c-di-GMP on the velocity of RavS-RavR phosphotransfer. The autophosphorylation and phosphotransfer reactions were set as mentioned in (a). Various concentrations of c-di-GMP were added to the reactions and isotopic signals (band intensities) of RavS~P were measured after autoradiography. (c–d) c-di-GMP triggered an increase in RavS-RavR phosphotransfer in a dose-dependent manner. (c) Various concentrations of c-di-GMP (0, 5, 10, 15, 30, 50, 75 and 100 μM) were added to the RavS-RavR phosphotransfer reactions. (d) The phosphorylated level of RavS^ΔN~P was quantified by ImageJ and the EC50 value was estimated by Origin 8.5 software. In (b) and (d), the intensity of each data point is the average from three experimental repeats. (e) c-di-GMP triggered increase in RavS-RavR phosphotransfer is highly specific. […] (f) RavS specifically interacts with fl-c-di-GMP. The interaction between RavS^ΔTrM and various nucleotides, including fl-c-di-GMP, fl-cGMP and fl-c-di-AMP, were measured by microscale thermophoresis (MST). A total of 20 nM fluorescein-labelled nucleotides and increasing concentrations of proteins were incubated and measured by MST. The dissociation constant (Kd) was quantified to estimate the binding affinity. Each experiment was repeated three times.
An in vitro autophosphorylation assay was conducted as described in our previous study. Purified protein was incubated with 10 μM ATP containing 10 μCi [γ-^32P]ATP (PerkinElmer, USA) in the reaction buffer (50 mM Tris-HCl, pH 7.8, 25 mM NaCl, 25 mM KCl, 5 mM MgCl2, 2 mM DTT) for the indicated time at 28°C. If necessary, c-di-GMP was added to the mixture at the same time as ATP. For the phosphoryl transfer assay, purified RR protein or its derivative was added into the reaction mixture containing the phosphorylated HK. The autophosphorylation or phosphoryl transfer reaction was terminated by adding 5× SDS-PAGE loading buffer. Phosphorylated proteins were separated by 12% SDS-PAGE. After electrophoresis, gels were exposed to a phosphor screen (GE Healthcare) and the autoradiographic signals were detected by a Typhoon FLA7000 (GE Healthcare).

RavS^ΔN [2] = target: T1, RavS^ΔN; assay: in vitro autophosphorylation assay; type: biochemical; details: 100 μM c-di-GMP, no RavR added
Description: (a) c-di-GMP enhances RavS-RavR phosphotransfer in vitro. A total of 5 μM RavS^ΔN was autophosphorylated for 15 min by the addition of 10 μCi [γ-^32P]ATP. A total of 15 μM RavR^ΔEAL or RavR^ΔEAL(D496A) was added and incubated for 30 min at 25°C. A total of 100 μM c-di-GMP was added if necessary. The reactions were terminated with 5× SDS loading buffer before autoradiography. The experiment was repeated three times. (b) Time course analyses of the impact of c-di-GMP on the velocity of RavS-RavR phosphotransfer. The autophosphorylation and phosphotransfer reactions were set as mentioned in (a). Various concentrations of c-di-GMP were added to the reactions and isotopic signals (band intensities) of RavS~P were measured after autoradiography. (c–d) c-di-GMP triggered an increase in RavS-RavR phosphotransfer in a dose-dependent manner. […] (d) The phosphorylated level of RavS^ΔN~P was quantified by ImageJ and the EC50 value was estimated by Origin 8.5 software. […] The interaction between RavS^ΔTrM and various nucleotides, including fl-c-di-GMP, fl-cGMP and fl-c-di-AMP, were measured by microscale thermophoresis (MST). A total of 20 nM fluorescein-labelled nucleotides and increasing concentrations of proteins were incubated and measured by MST. The dissociation constant (Kd) was quantified to estimate the binding affinity. […]

STING = target: STING; set-up: method as in PMID 26055114; details: upper end of reported range; cited from earlier work
RavR^ΔEAL = target: T2, RavR^ΔEAL (Xanthomonas campestris pv. campestris, UniProt Q8P9A7); assay: microscale thermophoresis (MST) binding; details: 20 nM fluorescein-labelled nucleotide, read-out: dissociation constant (Kd)
T2 sequence (Q8P9A7 with tags, fused parts or gaps): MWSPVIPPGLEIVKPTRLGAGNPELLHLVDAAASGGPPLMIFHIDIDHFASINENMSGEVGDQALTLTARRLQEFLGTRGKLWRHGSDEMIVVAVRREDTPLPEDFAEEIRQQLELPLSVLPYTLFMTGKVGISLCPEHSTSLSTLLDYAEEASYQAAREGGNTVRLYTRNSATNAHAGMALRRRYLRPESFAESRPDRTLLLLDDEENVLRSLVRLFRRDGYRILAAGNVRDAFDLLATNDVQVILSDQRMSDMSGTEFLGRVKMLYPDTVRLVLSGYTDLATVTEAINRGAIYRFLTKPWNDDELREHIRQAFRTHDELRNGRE

| Structure (SMILES) | EC50 (RavS^ΔN [1]; 5 μM RavS^ΔN, 15 μM RavR^ΔEAL, 30 min at 25°C, RavS^ΔN~P level quantified by ImageJ, read-out: median effect concentration (EC50) on RavS-RavR phosphotransfer) | T50: time that signal intensity of RavS~P decreased to half of the initiation stage (RavS^ΔN [1]; 15 μM c-di-GMP present, without c-di-GMP 38.2 min) | effect on RavS^ΔN autophosphorylation (autokinase activity) (RavS^ΔN [2]) | Kd (STING) | Kd (RavR^ΔEAL) |
| --- | --- | --- | --- | --- | --- |
| Nc1nc2c(ncn2[C@@H]2O[C@@H]3COP(=O)(O)O[C@H]4[C@@H](O)[C@H](n5cnc6c(=O)[nH]c(N)nc65)O[C@@H]4COP(=O)(O)O[C@H]3[C@H]2O)c(=O)[nH]1 [c-di-GMP, Cyclic di-GMP] | 15.6 µM and ~15.6 µM | 16.9 min | does not affect | 14.5 µM | – |
| Nc1nc2c(ncn2[C@@H]2O[C@@H]3COP(=O)(O)O[C@H]4[C@@H](OC(=O)NCCCCCCNC(=O)c5ccc6c(c5)C(=O)OC65c6ccc(O)cc6Oc6cc(O)ccc65)[C@H](n5cnc6c(=O)[nH]c(N)nc65)O[C@@H]4COP(=O)(O)O[C@H]3[C@H]2O)c(=O)[nH]1 [fl-c-di-GMP, 2′-Fluo-AHC-c-di-GMP] | – | – | – | – | 111 µM and > 80 µM |
